Laboratory results as given in patent publication US20010029239A1, “New herbicidal compositions” (priority 1999, published 2001).

Assay: Pre-emergence (experimental example 1) and post-emergence (experimental example 2) herbicidal tests, reported together
Type: in vivo
Conditions: 336 h; one or more weed species, in one or both of experimental examples 1 (pre-emergence, 250 g/ha) and 2 (post-emergence, 250 g/ha or less); two weeks after treatment, versus untreated control; read-out: reduction in the growth of one or more weed species
Protocol: Seed of various broad-leaf and grass weed species were sown and herbicide, dissolved in a mixture of acetone and water, was applied at a rate of 250 g/ha to the soil surface. The said weeds are Amaranthus retroflexus, Abutilon theophrasti, Galium aparine, Ipomoea purpurea, Setaria viridis, Alopecurus myosuroides, Avena fatua and Echinochloa crus-calli. Two weeks after treatment the percentage reduction in plant growth was assessed in comparison with an untreated control. Seed of the various weed species, as listed in experimental example 1, were sown and grown up to a 1-3 leaves stage. A post-emergence application of herbicide, dissolved in a mixture of acetone and water, was applied at a rate of 250 g/ha or less. Two weeks after treatment the percentage reduction in plant growth was assessed, in comparison with an untreated control.

With `COC=C(Oc1cccc(OC(=COC)C(=O)OC)c1C(=O)O)C(=O)OC` [Compound 1, 2,6-bis(2-methoxy-1-methoxycarbonyl-vinyloxy)benzoic acid] as the compound, how does the pest or weed control at up to 250 g/ha read?
The pest or weed control at up to 250 g/ha was at least 80%.

With `COC=C(Oc1cccc(COC(C)=O)c1C(=O)O)C(=O)OC` [Compound 2, methyl 2-(3-acetoxymethyl-2-carboxyphenoxy)-3-methoxypropenoate] as the compound, how does the pest or weed control at up to 250 g/ha read?
The pest or weed control at up to 250 g/ha was at least 80%.

With `C#CCOC(=O)c1c(OC(=COC)C(=O)OC)cccc1OC(=COC)C(=O)OC` [Compound 13, propargyl 2,6-bis(2-methoxy-1-methoxycarbonyl-vinyloxy)benzoate] as the compound, how does the pest or weed control at up to 250 g/ha read?
The pest or weed control at up to 250 g/ha was at least 80%.

With `COC=C(Oc1cccc(COc2ccccc2)c1C(=O)O)C(=O)OC` [Compound 16, methyl 2-(2-carboxy-3-phenoxymethylphenoxy)-3-methoxypropenoate] as the compound, how does the pest or weed control at up to 250 g/ha read?
Its pest or weed control at up to 250 g/ha is at least 80%.

Which pest or weed control at up to 250 g/ha does the source give for `COC=C(Oc1cccc(COc2ccc(Cl)cc2)c1C(=O)O)C(=O)OC` [Compound 17, methyl 2-(2-carboxy-3-(4-chlorophenoxymethyl)phenoxy)-3-methoxypropenoate] here?
Its pest or weed control at up to 250 g/ha is at least 70%.

With `COC=C(Oc1cccc(COc2ccc(C#N)cc2)c1C(=O)O)C(=O)OC` [Compound 18, methyl 2-[2-carboxy-3-(4-cyanophenoxymethyl)phenoxy]-3-methoxypropenoate] as the compound, how does the pest or weed control at up to 250 g/ha read?
The pest or weed control at up to 250 g/ha was at least 70%.

With `COC=C(Oc1cccc(COc2ccc(OC)cc2)c1C(=O)O)C(=O)OC` [Compound 19, methyl 2-[2-carboxy-3-(4-methoxyphenoxymethyl)phenoxy]-3-methoxypropenoate] as the compound, how does the pest or weed control at up to 250 g/ha read?
The pest or weed control at up to 250 g/ha was at least 80%.

For `COC=C(Oc1cccc(COc2ccc(C)cc2)c1C(=O)O)C(=O)OC` [Compound 20, methyl 2-[2-carboxy-3-(4-methylphenoxymethyl)phenoxy]-3-methoxypropenoate], which pest or weed control at up to 250 g/ha is on record?
Its pest or weed control at up to 250 g/ha is at least 70%.
